Measurements from PubChem BioAssay (NCI).
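Cells were grown in 96-well plates and exposed to each compound for 48 hours at five concentrations; endpoints were interpolated linearly between bracketing concentrations, or set to the highest concentration if not reached. Definition used: TGI = concentration required for complete inhibition of growth.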

What was measured:
Assay in all cases: NCI-60 cell line screen, 48 h
[1] = test system: 786-0 renal
[2] = test system: A498 renal
[3] = test system: A549 NSCLC
[4] = test system: ACHN renal
[5] = test system: CAKI-1 renal
[6] = test system: CCRF-CEM leukemia
[7] = test system: COLO 205 colon
[8] = test system: DLD-1 colon
[9] = test system: DMS 114 small cell lung
[10] = test system: EKVX NSCLC
[11] = test system: HCC-2998 colon
[12] = test system: HCT-116 colon
[13] = test system: HCT-15 colon
[14] = test system: HL-60(TB) leukemia
[15] = test system: HOP-18 NSCLC
[16] = test system: HOP-62 NSCLC
[17] = test system: HOP-92 NSCLC
[18] = test system: HT29 colon
[19] = test system: IGROV1 ovarian
[20] = test system: K-562 leukemia
[21] = test system: KM12 colon
[22] = test system: KM20L2 colon
[23] = test system: LOX IMVI melanoma
[24] = test system: LXFL 529 NSCLC
[25] = test system: M14 melanoma
[26] = test system: MALME-3M melanoma
[27] = test system: MOLT-4 leukemia
[28] = test system: NCI-H226 lung
[29] = test system: NCI-H23 lung
[30] = test system: NCI-H460 lung
[31] = test system: OVCAR-3 ovarian
[32] = test system: OVCAR-4 ovarian
[33] = test system: OVCAR-5 ovarian
[34] = test system: OVCAR-8 ovarian
[35] = test system: RPMI-8226 leukemia
[36] = test system: RXF 393 renal
[37] = test system: RXF-631 renal
[38] = test system: SF-295 CNS
[39] = test system: SF-539 CNS
[40] = test system: SK-MEL-2 melanoma
[41] = test system: SK-MEL-5 melanoma
[42] = test system: SK-OV-3 ovarian
[43] = test system: SN12C renal
[44] = test system: SNB-19 CNS
[45] = test system: SNB-75 CNS
[46] = test system: SNB-78 CNS
[47] = test system: SW-620 colon
[48] = test system: TK-10 renal
[49] = test system: U251 CNS
[50] = test system: UACC-257 melanoma
[51] = test system: UACC-62 melanoma
[52] = test system: UO-31 renal
[53] = test system: XF 498 CNS
[54] = test system: DMS 273 small cell lung
[55] = test system: M19-MEL melanoma
[56] = test system: SK-MEL-28 melanoma
[57] = test system: NCI-H522 lung
[58] = test system: SF-268 CNS
[59] = test system: SR leukemia

Measured: TGI

CSc1nc2c(nc(N)n2C2OC(COC(C)=O)C(OC(C)=O)C(OC(C)=O)C2OC(C)=O)c(=O)n1C (centres undefined)
not listed: [54] | [55] | [56] | [57] | [58] | [59]
> 100 µM: all other assays above

CC(=O)OCC1=C(C(=O)O)C(c2ccc3c(c2)OCO3)c2cc3c(cc2O1)OCO3 (centres undefined)
not listed: [1] | [2] | [11] | [21] | [24] | [28] | [33] | [40] | [57] | [58] | [59]
> 100 µM: all other assays above

Cc1cc2oc(-c3ccccc3)c(C)c(=O)c2c2c1OC(C)(C)S2
38.4 µM: [14]
not listed: [2] | [5] | [46]
> 100 µM: all other assays above

C/C=C(/CCC1NCCC2c3ccccc3NC12)[Si](C)(C)C (centres undefined)
24.8 µM: [55]
29.5 µM: [39]
27.2 µM: [4]
21.4 µM: [45]
9.68 µM: [47]
26.7 µM: [15] | [40]
16.2 µM: [22]
22.8 µM: [5]
24.9 µM: [13]
57 µM: [6]
14.2 µM: [50]
4.36 µM: [14]
14.3 µM: [9]
26.2 µM: [46]
15.6 µM: [21]
18.8 µM: [17]
24 µM: [31]
20.9 µM: [32]
29 µM: [44]
7.7 µM: [20]
27.4 µM: [10]
23.5 µM: [58]
8.53 µM: [18]
20 µM: [33]
25.6 µM: [19]
3.61 µM: [11]
17.1 µM: [8]
16.9 µM: [56]
19.2 µM: [36]
29.2 µM: [3]
26.4 µM: [51]
27.1 µM: [28]
28.8 µM: [29] | [48]
16.4 µM: [27]
11.9 µM: [12]
11.8 µM: [25]
13 µM: [24]
3.15 µM: [7]
21.7 µM: [54]
12.1 µM: [53]
23.4 µM: [37]
12.5 µM: [59]
30.2 µM: [57]
25.4 µM: [49]
21.1 µM: [34]
23.7 µM: [1]
13.7 µM: [35]
26 µM: [41]
28.6 µM: [16]
12.4 µM: [30]
20.2 µM: [23] | [52]
29.1 µM: [38] | [42]
23.9 µM: [43]
